The test system of series [1] is DENV-2 strain 16681. Briefly: Tetravalent RT-qPCR assay, serotype 2. Type of series: cell-based, Dengue virus. To be noted: RT-qPCR serotype 2 16681, Protocol A, Vero cells, day 3. Here is the method:
(§1) Tetravalent reverse transcriptase quantitative-PCR (RT-qPCR) assay The antiviral activity of the compounds of the invention was tested against DENV-1 strain TC974#666 (NCPV), DENV-2 strain 16681, DENV-3 strain H87 (NCPV) and DENV-4 strain H241 (NCPV) in a RT-qPCR assay. Therefore, Vero cells were infected with either DENV-1, or -2, or -3, or -4 in the presence or absence of test compounds. At day 3 post-infection, the cells were lysed and cell lysates were used to prepare cDNA of both a viral target (the 3′UTR of DENV; Table 2) and a cellular reference gene (β-actin, Table 2). Subsequently, a duplex real time PCR was performed on a Lightcycler480 instrument. The generated Cp value is inversely proportional to the amount of RNA expression of these targets. Inhibition of DENV replication by a test compound results in a shift of Cp's for the 3′UTR gene. On the other hand, if a test compound is toxic to the cells, a similar effect on β-actin expression will be observed. The comparative ΔΔCp method is used to calculate EC50, which is based on the relative gene expression of the target gene (3′UTR) normalized with the cellular housekeeping gene (β-actin). In addition, CC50 values are determined based on the Cp values acquired for the housekeeping gene β-actin.
(§2) The culture medium consisted of minimal essential medium supplemented with 2% of heat-inactivated fetal calf serum, 0.04% gentamycin (50mg/mL) and 2 mM of L-glutamine. Vero cells, obtained from ECACC, were suspended in culture medium and 75 μL/well was added in 96-well plates (10000 cells/well), which already contain the antiviral compounds. […] In addition, each plate contains wells which are assigned as virus controls (containing cells and virus in the absence of compound) and cell controls (containing cells in the absence of virus and compound). Once the cells were added in the plates, the plates were incubated in a fully humidified incubator (37° C., 5% CO2) until the next day. Dengue viruses serotype-1, 2, 3 and 4 were diluted in order to obtain a Cp of ˜22-24 in the assay. Therefore, 25 μL of virus suspension was added to all the wells containing test compound and to the wells assigned as virus control. In parallel, 25 μL of culture medium was added to the cell controls. Next, the plates were incubated for 3 days in a fully humidified incubator (37° C., 5% CO2). After 3 days, the supernatant was removed from the wells and the cells were washed twice with ice-cold PBS (˜100 μL). The cell pellets within the 96-well plates were stored at −80° C. for at least 1 day. Next, RNA was extracted using the Cells-to-CT™ lysis kit, according to the manufacturer's guideline (Life Technologies). The cell lysates can be stored at −80° C. or immediately used in the reverse transcription step.
(§3) In preparation of the reverse transcription step, mix A (table 3A) was prepared and 7.57 μL/well was dispensed in a 96-well plate. After addition of 5 μL of the cell lysates, a five minute denaturation step at 75° C. was performed (table 3B). Afterwards, 7.43 μL of mix B was added (table 3C) and the reverse transcription step was initiated (table 3D) to generate cDNA.
(§4) Finally, a RT-qPCR mix was prepared, mix C (table 4A), and 22.02 μL/well was dispensed in 96-well LightCycler qPCR plates to which 3μL of cDNA was added and the qPCR was performed according to the conditions in table 4B on a LightCycler 480.
(§5) Using the LightCycler software and an in-house LIMS system, dose response curves for each compound were calculated and the half maximal effective concentration (EC50) and the half maximal cytotoxic concentration (CC50) were determined (Tables 5-8).
Background: Quantitative PCR measures a nucleic acid by following its amplification.

Series [2] relates to DENV-3 strain H87. Briefly: Tetravalent RT-qPCR assay, serotype 3. To be noted: RT-qPCR serotype 3 H87, Protocol A, Vero cells, day 3. Type of series: cell-based, Dengue virus. Here is the method: as §1, §2, §3, §4, §5
Series [3] has as its system DENV-2 16681 strain. Briefly: DENV-2 antiviral assay (eGFP-labeled virus in Vero cells). The settings on record: DENV-2 16681 eGFP, MOI 0.5, 3 days. Type of series: cell-based, Dengue virus. As to the method: The antiviral activity of all the compounds of the invention was tested the against DENV-2 16681 strain which was labeled with enhanced green fluorescent protein (eGPF). The culture medium consists of minimal essential medium supplemented with 2% of heat-inactivated fetal calf serum, 0.04% gentamycin (50 mg/mL) and 2 mM of L-glutamine. Vero cells, obtained from ECACC, were suspended in culture medium and 25 μL was added to 384-well plates (2500 cells/well), which already contain the antiviral compounds. Typically, these plates contain a 5-fold serial dilution of 9 dilution steps of the test compound at 200 times the final concentration in 100% DMSO (200 nL). […] Finally, each plate contains wells which are assigned as virus controls (containing cells and virus in the absence of compound), cell controls (containing cells in the absence of virus and compound) and medium controls (containing medium in the absence of cells, virus and compounds). To the wells assigned as medium control, 25 μL of culture medium was added instead of Vero cells. Once the cells were added to the plates, the plates were incubated for 30 minutes at room temperature to allow the cells to distribute evenly within the wells. Next, the plates were incubated in a fully humidified incubator (37° C., 5% CO2) until the next day. Then, DENV-2 strain 16681, labeled with eGFP, was added at a multiplicity of infection (MOI) of 0.5. Therefore, 15 μL of virus suspension was added to all the wells containing test compound and to the wells assigned as virus control. In parallel, 15 μL of culture medium was added to the medium and cell controls. Next, the plates were incubated for 3 days in a fully humidified incubator (37° C., 5% CO2). At the day of the read out, the eGFP fluorescence was measured using an automated fluorescence microscope at 488 nm (blue laser). Using an in-house LIMS system, inhibition dose response curves for each compound were calculated and the half maximal effective concentration (EC50) was determined. Therefore, the percent inhibition (I) for every test concentration is calculated using the following formula: I=100*(ST-SCC)/(SVC-SCC), ST, SCC and SVC are the amount of eGFP signal in the test compound, cell control and virus control wells, respectively. The EC50 represents the concentration of a compound at which the virus replication is inhibited with 50%, as measured by a 50% reduction of the eGFP fluorescent intensity compared to the virus control. The EC50 is calculated using linear interpolation (Table 1).

The test system of series [4] is DENV-1 strain TC974#666. Briefly: Tetravalent RT-qPCR assay, serotype 1. To be noted: RT-qPCR serotype 1 TC974#666, Protocol A, Vero cells, day 3. Type of series: cell-based, Dengue virus. As to the method:
as §1, §2, §3, §4, §5

Series [5] has as its system Vero cells. The settings on record: African green monkey.
Series [6] has as its system DENV-4 strain H241. Briefly: Tetravalent RT-qPCR assay, serotype 4. The series is classed as cell-based, Dengue virus. The settings on record: RT-qPCR serotype 4 H241, Protocol A, Vero cells, day 3, read-out: EC50. As to the method:
as §1, §2, §3, §4, §5

The nature of series [7]: in vitro. To be noted: African green monkey.
Setting [8] is: Dengue virus, DENV2, Vero, 72 h.
Where [9] appears, read: Dengue virus, DENV3, Vero, 72 h.
Where [10] appears, read: Dengue virus, DENV1, Vero, 72 h.
The mark [11] stands for this setting: Dengue virus, DENV4, Vero, 72 h.

The structures appear in SMILES notation. pEC50: −log10 of the molar value. Read-outs that look alike come from different tables or passages of the source. Some results are limits rather than exact numbers.

What is called pEC50 is −log10 of the EC50, conventionally taken in molar units. Turning to `COc1cc(NC(C(=O)N2CCc3ccc(C(F)(F)F)cc32)c2ccc(Cl)cc2OC)cc(OCCO)c1` (single isomer, unassigned) [Compound 1B, 2-(4-chloro-2-methoxyphenyl)-2-((3-(2-hydroxyethoxy)-5-methoxyphenyl)amino)-1-(6-(trifluoromethyl)indolin-1-yl)ethanone], the pEC50 in series [1] (setting [8]) is 8.44; in series [2] (setting [9]), 7.25; in series [3], 8.44; in series [4] (setting [10]), 8.36; in series [6] (setting [11]) it was 6.60. This compound also registered a CC50 in series [5] of 12 µM.
Turning to `COc1cc(NC(C(=O)N2CCc3ccc(OC(F)(F)F)cc32)c2ccc(Cl)cc2)cc(OCCO)c1` (single isomer, unassigned) [Compound 3A, 2-(4-chlorophenyl)-2-((3-(2-hydroxyethoxy)-5-methoxyphenyl)amino)-1-(6-(trifluoromethoxy)indolin-1-yl)ethanone], the pEC50 in series [1] (setting [8]) is 8.66; in series [2] (setting [9]), 7.54; in series [3], 8.64; in series [4] (setting [10]) it was 8.44; in series [6] (setting [11]) it was 6.72. This compound displayed a CC50 in series [7] of 9.6 µM.
For `COc1cc(NC(C(=O)N2CCc3ccc(C(F)(F)F)cc32)c2ccc(Cl)cc2)cc(OCCO)c1` (single isomer, unassigned) [Compound 4A, 2-(4-chlorophenyl)-2-((3-(2-hydroxyethoxy)-5-methoxyphenyl)amino)-1-(6-(trifluoromethyl)indolin-1-yl)ethanone], the pEC50 was 8.37 in series [1]; 7.57 in series [2]; 8.44 in series [3]; 8.41 in series [4]; 6.68 in series [6]. In series [7], this compound gave a CC50 of 12 µM.
As for `COc1cc(NC(C(=O)N2CCc3ccc(C(F)(F)F)cc32)c2ccc(Cl)cc2)cc(OCCO)c1` (single isomer, unassigned) [Compound 4B, 2-(4-chlorophenyl)-2-((3-(2-hydroxyethoxy)-5-methoxyphenyl)amino)-1-(6-(trifluoromethyl)indolin-1-yl)ethanone], the pEC50 in series [1] is 6.00; in series [2] it was < 5.72; in series [3] it was 5.96; in series [4], 6.15; in series [6] it was < 5.60. Also, the CC50 in series [5] amounted to 14 µM.
Turning to `COc1cc(NC(C(=O)N2CCc3cc(OC)c(C(F)(F)F)cc32)c2ccc(Cl)cc2F)cc(OCCO)c1` (single isomer, unassigned) [Compound 8B, 2-(4-chloro-2-fluorophenyl)-2-((3-(2-hydroxyethoxy)-5-methoxyphenyl)amino)-1-(5-methoxy-6-(trifluoromethyl)indolin-1-yl)ethanone], the pEC50 is 8.64 in series [1] (setting [8]); 7.30 in series [2] (setting [9]); 8.72 in series [3]; 8.09 in series [4] (setting [10]); 6.92 in series [6] (setting [11]). Besides, the CC50 in series [5] is ≥ 76 µM.
As for `COc1cc(NC(C(=O)N2CCc3c(C)cc(OC(F)(F)F)cc32)c2ccc(Cl)cc2)cc(OCCO)c1` (single isomer, unassigned) [Compound 9B, 2-(4-chlorophenyl)-2-((3-(2-hydroxyethoxy)-5-methoxy-phenyl)amino)-1-(4-methyl-6-(trifluoromethoxy)indolin-1-yl)ethanone], the pEC50 in series [1] (setting [8]) was 8.92; in series [2] (setting [9]), 7.80; in series [3], 8.85; in series [4] (setting [10]), 8.57; in series [6] (setting [11]), 6.96. In series [5], this compound displayed a CC50 of 11 µM.
In the case of `COc1cc(NC(C(=O)N2CCc3c(C)cc(C(F)(F)F)cc32)c2ccc(Cl)cc2)cc(OCCO)c1` (single isomer, unassigned) [Compound 10B, 2-(4-chlorophenyl)-2-((3-(2-hydroxyethoxy)-5-methoxy-phenyl)amino)-1-(4-methyl-6-(trifluoromethyl)indolin-1-yl)ethanone], the pEC50 in series [1] (setting [8]) is 8.64; in series [2] (setting [9]), 7.80; in series [3], 8.66; in series [4] (setting [10]), 8.77; in series [6] (setting [11]) it was 6.80. Besides, the CC50 in series [5] was 11 µM.
On to `COc1cc(NC(C(=O)N2CCc3cc(OC)c(C(F)(F)F)cc32)c2ccc(Cl)cc2OC)cc(OCCO)c1` (single isomer, unassigned) [Compound 11B, 2-(4-chloro-2-methoxyphenyl)-2-((3-(2-hydroxyethoxy)-5-methoxyphenyl)amino)-1-(5-methoxy-6-(trifluoromethyl)indolin-1-yl)ethanone], for which the pEC50 in series [1] (setting [8]) was 8.70; in series [2] (setting [9]) it was 7.47; in series [3], 8.80; in series [4] (setting [10]), 8.11; in series [6] (setting [11]), 6.55. Also, the CC50 in series [5] was > 25 µM.
Consider `COc1cc(NC(C(=O)N2CCc3cc(F)c(C(F)(F)F)cc32)c2ccc(Cl)cc2)cc(OCCO)c1` (single isomer, unassigned) [Compound 12A, 2-(4-chlorophenyl)-1-(5-fluoro-6-(trifluoromethyl)indolin-1-yl)-2-((3-(2-hydroxyethoxy)-5-methoxyphenyl)amino)ethanone], for which the pEC50 was 8.36 in series [1] (setting [8]); 7.40 in series [2] (setting [9]); 8.64 in series [3]; 8.48 in series [4] (setting [10]); 6.62 in series [6] (setting [11]). The same compound yielded a CC50 in series [7] of 12 µM.

Values taken from US20200339511A1, “Substituted indoline derivatives as dengue viral replication inhibitors” (priority 2016, published 2020).
